These results are taken from patent US6686382B2, “Sulfonamides and derivatives thereof that modulate the activity of endothelin” (Encysive Pharmaceuticals Inc., priority 1999, dated 2004).

Where two headings read alike, the source gives them in different places.

One data set concerns the target T1, human ETA receptors (Homo sapiens, UniProt P25101).
T1 construct: endogenous in cells; host or cells: TE 671 cells (ATCC HTB 139), membrane preparation
T1 sequence (P25101 21-427): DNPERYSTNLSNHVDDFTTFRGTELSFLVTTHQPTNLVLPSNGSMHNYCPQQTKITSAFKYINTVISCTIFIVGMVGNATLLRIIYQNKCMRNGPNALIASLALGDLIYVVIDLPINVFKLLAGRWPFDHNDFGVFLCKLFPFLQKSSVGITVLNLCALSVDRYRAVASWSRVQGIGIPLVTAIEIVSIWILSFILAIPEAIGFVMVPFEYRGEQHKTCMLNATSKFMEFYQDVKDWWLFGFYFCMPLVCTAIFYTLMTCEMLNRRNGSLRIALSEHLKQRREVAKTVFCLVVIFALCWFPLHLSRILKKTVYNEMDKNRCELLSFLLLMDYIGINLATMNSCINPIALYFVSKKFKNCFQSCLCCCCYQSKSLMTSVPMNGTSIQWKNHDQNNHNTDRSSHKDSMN
Briefly: Endothelin binding inhibition, Binding Test #1: inhibition of binding to ETA receptors (TE 671 cell membranes). The note with it: relative to N-(4-chloro-3-methyl-5-isoxazolyl)-2-{[3,4-(methylenedioxy)-6-methylphenyl)acetyl]-thiophene-3-sulfonamide (= 1.0). The text has this:
(§1) Compounds that are potential endothelin antagonists are identified by testing their ability to compete with ^125I-labeled ET-1 for binding to human ETA receptors or ETB receptors present on isolated cell membranes. The effectiveness of the test compound as an antagonist or agonist of the biological tissue response of endothelin can also be assessed by measuring the effect on endothelin induced contraction of isolated rat thoracic aortic rings. The ability of the compounds to act as antagonists or agonists for ETB receptors can be assess by testing the ability of the compounds are to inhibit endothelin-1 induced prostacyclin release from cultured bovine aortic endothelial cells.
(§2) A. Endothelin Binding Inhibition—Binding Test #1: Inhibition of Binding to ETA Receptors
(§3) TE 671 cells (ATCC Accession No. HTB 139) express ETA receptors. These cells were grown to confluence in T-175 flasks. Cells from multiple flasks were collected by scraping, pooled and centrifugedfor 10 min at 190×g. The cells were resuspended in phosphate buffered saline (PBS) containing 10 mM EDTA using a Tenbroeck homogenizer. The suspension was centrifuged at 4° C. at 57,800×g for 15 min, the pellet was resuspended in 5 ml of buffer A (5 mM HEPES buffer, pH 7.4 containing aprotinin (100 KIU/ml)) and then frozen and thawed once. 5 ml of Buffer B (5 mM HEPES Buffer, pH 7.4 containing 10 mM MnCl2 and 0.001% deoxyribonuclease Type 1) was added, the suspension mixed by inversion and then incubated at 37° C. for 30 minutes. The mixture was centrifuged at 57,800×g as described above, the pellet washed twice with buffer A and then resuspended in buffer C (30 mM HEPES buffer, pH 7.4 containing aprotinin (100 KIU/ml) to give a final protein concentration of 2 mg/ml and stored at −70° C. until use.
(§4) The membrane suspension was diluted with binding buffer (30 mM HEPES buffer, pH 7.4 containing 150 mM NaCl, 5 mM MgCl2, 0.5% Bacitracin) to a concentration of 8 μg/50 μl. ^125I-endothelin-1 (3,000 cpm, […]) was added to 50 μL of either: (A) endothelin-1 (for non specific binding) to give a final concentration 80 nM); (B) binding buffer (for total binding); or (C) a test compound (final concentration 1 nM to 100 μM). The membrane suspension (50 μL), containing up to 8 μg of membrane protein, was added to each of (A), (B), or (C). Mixtures were shaken, and incubated at 4° C. for 16-18 hours, and then centrifuged at 4° C. for 25 min at 2,500×g. Alternatively, the incubation was conducted at 24° C. […] This, must be kept in mind when comparing IC50 concentrations among compounds provided herein.
(§5) The supernatant, containing unbound radioactivity, was decanted and the pellet counted on a Genesys multiwell gamma counter. The degree of inhibition of binding (D) was calculated according to the following equation: [formula]
Each test was generally performed in triplicate.

The test system of data set [1] is ETA receptors and ETB receptors. Briefly: Endothelin binding inhibition, ETA (TE 671) and ETB (transfected COS7) receptors: selectivity. The following applies: antagonism of ETA receptors over ETB receptors. Details: species or system human.
From the text: as §1, §2, §3, §4, §5
B. Endothelin Binding Inhibition—Binding Test #2: Inhibition of Binding to ETB Receptors
COS7 cells were transfected with DNA encoding the ETB receptor, The resulting cells, which express the human ETB receptor, were grown to confluence in T-150 flasks. Membrane was prepared as described above. The binding assay was performed as described above using the membrane preparation diluted with binding buffer to a concentration of 1 μg/50 μl.
Briefly, the COS7 cells, described above, that had been transfected with DNA encoding the ETB receptor and express the human ETB receptor on their surfaces were grown to confluence in T-175 flasks. […]

Data set [2] is described as follows: Pharmacokinetic properties (oral availability, elimination half-life, Cmax). In kind it is in vivo. The text has this: As used herein, bioavailability or oral availability refers to the rate and extent of absorption. Methods for determining bioavailability or oral availability are well known to those of skill in the art. For example, bioavailability or oral availability of any of the compounds described herein can be determined empirically by administration of the compound to an animal, followed by taking blood samples over time and measuring the blood concentration of the compound. In vivo half life (t1/2) is defined as the time it takes for the concentration of the compound in the blood to be reduced by one-half. Estimations of the area under the curve for intravenous administration can be used to estimate the area under the curve for oral administration, yielding bioavailability data. See, e.g., Milo Gibal (1991) Biopharmaceutics and Pharmacology, 4th edition (Lea and Sediger).

The next data set deals with ETA receptor. The note with it: read-out: IC50, inhibition of 125I-labelled endothelin-1 binding, cited from earlier work.
A further data set deals with ETB receptors. The note with it: concentrations up to 100 μM; cited from earlier work.
The test system of a further data set is isolated vascular strips. The following applies: read-out: EC50, contractile agent; cited from earlier work.

Usually Cmax stands for the peak of the concentration-time curve. In general, melting point refers to the temperature of the solid-liquid transition. `Cc1cc(C)c(NC(=O)c2sccc2S(=O)(=O)Nc2onc(C)c2Cl)c(-c2ncco2)c1` [Compound 44, 3-{[(4-chloro-3-methyl-5-isoxazolyl)amino]sulfonyl}-N-[2,4-dimethyl-6-(1,3-oxazol-2-yl)phenyl]-2-thiophenecarboxamide] had a melting point of 176 to 178 °C. Besides, the “ETA ACTIVITY (ETA antagonist activity relative to reference compound)” value at human ETA receptors is 17.9. Also, the “Selectivity (IC50 for ETB/IC50 for ETA)” value in data set [1] is 119,000. Besides, in data set [2] (blood, read-out: t½ elim. (converted)), the half-life is 5.3 h. In data set [2] (in vivo), this compound yielded a Cmax of 66 µg/mL.

With `Cc1cc(-c2ncco2)cc(C)c1NC(=O)c1sccc1S(=O)(=O)Nc1onc(C)c1Cl` [Compound 52, 3-{[(4-chloro-3-methyl-5-isoxazolyl)amino]sulfonyl}-N-[2,6-dimethyl-4-(1,3-oxazol-2-yl)phenyl]-2-thiophenecarboxamide], the melting point lay within 205 to 207 °C. The “ETA ACTIVITY (ETA antagonist activity relative to reference compound)” value at human ETA receptors was 1.1.

Usually IC50 stands for the midpoint of a concentration-inhibition curve. As to “cyclo(D-Glu-L-Ala-allo-D-Ile-L-Leu-D-Trp) [BE-18257B]”, the figures for the IC50 on ETA receptor (aortic smooth muscle), at ETA receptor (cultured aortic smooth muscle cells) and on ETA receptor (ventricle membranes) were 1400 nM, 500 nM and 800 nM, respectively. In the data set with ETB receptors, the “inhibition of binding to receptors in tissues in which ETB receptors predominate” value is recorded as “fails to inhibit binding”.

As a reminder, the EC50 is the concentration at which the effect is half-maximal. In the case of “endothelin-1: potent twenty-one amino acid peptide vasoconstrictor”, in the data set on isolated vascular strips, the EC50 is 0.4 nM.
